Measured values taken from paper PMC5521788, “In Vitro comparison of ^213Bi- and ^177Lu-radiation for peptide receptor radionuclide therapy” (PLoS ONE, 2017).

Key:
[1] = tested on: CA20948 cells; experiment: Clonogenic assay, CA20948 cells; format: cell-based, rat
Experimental: Before irradiation of the cells, 500 cells were seeded in 6-well plates (pre-coated with poly-l-lysine) 24 h before the experiment. […] After irradiation, internalization medium containing radioligand was removed. […] Every 2 or 3 d, medium was replaced by fresh culture medium. […] The 6-well plates containing colonies were scanned with a HP-scanner at 200 dpi. The colonies in each well were counted by a clonocounter. The survival was plotted as a function of absorbed dose and fitted to linear-quadratic (LQ) or linear-exponential curves. The cell absorbed dose during the incubation period was calculated with a dosimetry model of the 6-well plate, as described by Verwijnen et al.. The 3.5 cm diameter well cavity was modeled in the Monte Carlo radiation transport code Monte Carlo N-Particle […] (version 2.5.0, Los Alamos National Laboratory, USA) with homogeneously distributed radioactivity over the 2 mL volume aqueous liquid within the cavity. […] The division the layers of the well were as followed; 18 layers of 100 μm and 8 layers of 25 μm at the bottom of the well. […] D (25μm←fluid)=Ãfluid(1)×S(25μm←fluid)=∫T0TAfluide^-λtdt×S(25μm←fluid) […] The dosimetry for the specific uptake of radioactivity in the cells was calculated with the multicellular dosimetry code MIRD cell. […] Initially 500 cells were plated over the 9.62 cm^2 surface of the well. For evenly distributed cells over the surface the mean inter-cell distance would be 770 μm. In reality the cells were more clustered to the center of the well. […] The number of disintegrations within each cell (or Time-Integrated Activity per cell ã) was calculated by integration of the decay function of ^177Lu and ^213Bi and its progeny over the 12 d irradiation time multiplied by the ƒint and ƒmem per cell. This assumes that ƒmem will remain bound to the cells and ƒint remains trapped in the cell over a period of 12 d.

[2] = tested on: BON cells; experiment: Clonogenic assay, BON cells; format: cell-based, human
Experimental: Before irradiation of the cells, 500 cells were seeded in 6-well plates (pre-coated with poly-l-lysine) 24 h before the experiment. […] After irradiation, internalization medium containing radioligand was removed. […] Every 2 or 3 d, medium was replaced by fresh culture medium. […] The 6-well plates containing colonies were scanned with a HP-scanner at 200 dpi. The colonies in each well were counted by a clonocounter. The survival was plotted as a function of absorbed dose and fitted to linear-quadratic (LQ) or linear-exponential curves. The cell absorbed dose during the incubation period was calculated with a dosimetry model of the 6-well plate, as described by Verwijnen et al.. The 3.5 cm diameter well cavity was modeled in the Monte Carlo radiation transport code Monte Carlo N-Particle […] (version 2.5.0, Los Alamos National Laboratory, USA) with homogeneously distributed radioactivity over the 2 mL volume aqueous liquid within the cavity.

In the case of `O=C([O-])CN(CCN(CC(=O)[O-])CC(=O)[O-])CCN(CC(=O)[O-])CC(=O)[O-].[213Bi+3]` [^213Bi-DTPA], the “factor advantage in cell killing compared to ^177Lu-DOTATATE” value ([1]; 10% survival, CA20948 (abstract)) is reported as 6, the “RBE at D10 compared to ^137Cs irradiation” value ([1]; CA20948) is reported as 2.0 and the “LQ model parameter α” value ([1]; CA20948, 1 h exposure, colonies after 12 d, n = 3) is reported as 0.74±0.08 /Gy. The “D10 (absorbed dose of 10% survival)” value ([1]; CA20948, 1 h incubation, 12 d colony growth) was 2.6 Gy, the “RBE at 10% cell survival” value ([1]; in both low (BON) and high (CA20948) SSTR2 expressing cell lines) was 1.5–2.0 and the “RBE at D10 compared to ^137Cs irradiation” value [2] was 1.8. The “LQ model parameter α” value ([2]; 1 h exposure, colonies after 12 d, n = 3) was 0.87±0.1 /Gy and the “D10 (absorbed dose of 10% survival)” value ([2]; 1 h incubation, 12 d colony growth) was 2.5 Gy.
